Test results taken from patent US10220024B2, “Method of inhibiting cancer cell, method for detecting cancer cell, and system for detecting cancer cell” (CANON KABUSHIKI KAISHA, priority 2012, dated 2019).
Like-named read-outs stand apart in the source and are kept apart here.

How the values were obtained:
[1] = tested on: Human pancreas cancer cells, KLM-1; assay: Cancer cell inhibitory (growth suppressive) action against pancreatic cancer cells, CellTiter-Glo viable cell count; assay type: cell-based; settings: KLM1, KLM-1, 10 μg/mL, 24 hours
Procedure: (§1) Observation on cancer cell inhibitory (growth suppressive) action against pancreatic cancer cells Human pancreas cancer cells, KLM-1, were pre-cultured in RPMI1640 medium containing 10% FBS at 37° C. in a 5% CO2 ambient. Thereafter, 4,000 cells were seeded per well of a 96-well plate and further cultured for 24 hours. Subsequently, Compound (1) was added to the medium so as to obtain a final concentration of 10 μg/mL and cultured at 37° C. for 24 hours in a 5% CO2 ambient. The cultured cells were analyzed for viable cell count according to CellTiter-Glo Luminescent Cell Viability Assay (manufactured by Promega KK.). As a reference, the number of cells cultured in a medium containing a 0.1% dimethylsulfoxide solution (hereinafter, simply referred to as DMSO) in place of a medium containing Compound (1), in the aforementioned operation, was regarded (100%).
Viable cell count was analyzed in the same manner as in Experimental Example 1 except that Compound (1) of Experimental Example 1 was changed to compounds shown in Table 2.
Viable cell count was analyzed in the same manner as in Experimental Example 1 except that Compound (1) was changed to comparative compounds 1 to 4.
Viable cell counts of Experimental Examples 1 to 7 and Comparative Examples 1 to 4 were analyzed to obtain growth rates.
Evaluation of cancer cell inhibition against the pancreatic cancer cells (KLM-1) (growth suppression) was made based on the following criteria. Note that the growth rate in Examples herein is a numerical value of the number of cells obtained after culture relative to the number of cells (regarded as 100) grown in a medium containing 0.1% DMSO. Evaluation of cancer cell inhibition against the pancreatic cancer cells (KLM-1) was made as follows. • A: Cancer cell growth rate is less than 20% (cancer cell inhibitory (growth suppressive) effect is extremely high) • B: Cancer cell growth rate is 20% or more and less than 50% (cancer cell inhibitory (growth suppressive) effect is high) • C: Cancer cell growth rate is 50% or more (cancer cell inhibitory (growth suppressive) effect is low)

[2] = tested on: Prostatic cancer cells, PC-3; assay: Cancer cell inhibitory (growth suppressive) action against prostatic cancer cells, CellTiter-Glo viable cell count; assay type: cell-based; settings: PC-3, 10 μg/mL, 24 hours
Procedure: as §1, with “Prostatic” for “Observation on cancer cell inhibitory (growth suppressive) action against pancreatic cancer cells Human pancreas”, “PC-3,” for “KLM-1,”, “(11)” for “(1)”, “(11),” for “(1),”, “used as 100.” for “regarded (100%).”
Viable cell count was analyzed in the same manner as in Experimental Example 8 except that the compounds shown in Table 3 were used in place of Compound (11) of Experimental Example 8.
Viable cell count was analyzed in the same manner as in Experimental Example 8 except that comparative compounds 1 to 4 were used in place of Compound (11) of Experimental Example 8.
The growth rate in Examples herein is a numerical value of the number of cells obtained after culture relative to the number of cells (regarded as 100) grown in a medium containing 0.1% DMSO.
Evaluation of cancer cell inhibition against the prostatic cancer cells (PC-3) was made as follows. • A: Cancer cell growth rate is less than 20% (cancer cell inhibitory (growth suppressive) effect is extremely high) • B: Cancer cell growth rate is 20% or more and less than 50% (cancer cell inhibitory (growth suppressive) effect is high) • C: Cancer cell growth rate is 50% or more (cancer cell inhibitory (growth suppressive) effect is low)

[3] = Measurement of fluorescent property of compound (spectrofluorometer); assay type: physicochemical; settings: 5 μM DMSO solution
Procedure: The excitation wavelength and fluorescence wavelength of the compound were measured by a FL4500 spectrofluorometric measuring machine manufactured by Hitachi High-Technologies Corporation.

[4] = tested on: K562 ALDH (+) fraction (cancer stem cells); assay: Cancer stem-cell selective inhibitory action against chronic myelocytic leukemia cells, ALDH (+) fraction, CellTiter-Glo; assay type: cell-based; settings: Homo sapiens, 10 μg/ml, 24 hours
Procedure: (§2) Human chronic myelocytic leukemia cells, K562, were pre-cultured in RPMI1640 medium containing 10% FBS at 37° C. in a 5% CO2 ambient. Then, a fraction containing 80% or more of cancer stem cells was extracted by use of ALDEFLUOR reagent (manufactured by VERITAS Corporation) and FACSAria flow cytometry (manufactured by Nippon Becton, Dickinson and Company). Subsequently, Compound (5) was added to the medium so as to obtain a final concentration of 10 μg/mL and cultured at 37° C. for 24 hours in a 5% CO2 ambient. The cultured cells were analyzed for viable cell count according to CellTiter-Glo Luminescent Cell Viability Assay (manufactured by Promega KK.). As a reference, the number of cells cultured in a medium containing a 0.1% dimethylsulfoxide solution (hereinafter, simply referred to as DMSO) in place of a medium containing Compound (1), in the aforementioned operation, was used as 0.1. Note that hereinafter, an ALDEFLUOR reagent positive fraction (deemed as cancer stem cells) is represented by ALDH (+), whereas an ALDEFLUOR reagent negative fraction (not deemed as cancer stem cells) is represented by ALDH (−), in some cases.
(§3) The same operation as in Experimental Example 12 was repeated except that Compound (5) in Experimental Example 12 was changed to the compounds shown in Table 4 and final concentrations shown in Table 4 were used and viable cell counts were separately analyzed. Note that the growth rate in Examples herein is a numerical value of the number of cells obtained after culture relative to the number of cells (regarded as 0.1) grown in a medium containing 0.1% DMSO.
(§4) The same operation as in Experimental Example 12 was repeated except that Compound (5) in Experimental Example 12 was changed to Imatinib (manufactured by NOVARTIS), which is a general anticancer drug, and comparative compounds shown in Table 4 and final concentrations shown in Table 4 were used and viable cell counts were separately analyzed.
(§5) The growth suppressive effect of cancer stem cells was evaluated based on the following criteria. Note that the growth rate in Examples herein is a numerical value relative to the number of cells (regarded as 0.1) grown in a medium containing 0.1% DMSO. • A: The value of ALDH (+) is less than 0.5 (growth suppressive effect against cancer stem cells is extremely high) • B: The value of ALDH (+) is 0.5 or more and less than 0.95 (growth suppressive effect against cancer stem cells is high) • C: The value of ALDH (+) is 0.95 or more (no growth suppressive effect against cancer stem cells)
(§6) Furthermore, superiority of cancer stem cells was evaluated by comparing cancer stem cells to cancer cells based on the following criteria. ALDH (+) represents cancer stem cells; whereas ALDH (−) represents general cancer cells. • A: The value of ALDH (+)/ALDH (−) is less than 0.8 (selective inhibitory effect against cancer stem cells is extremely high) • B: The value of ALDH (+)/ALDH (−) is 0.8 or more and less than 0.95 (selective inhibitory effect against cancer stem cells is high) • C: The value of ALDH (+)/ALDH (−) is 0.95 or more (no selective inhibitory effect against cancer stem cells)

[5] = tested on: K562 ALDH (−) fraction (general cancer cells); assay: Cancer stem-cell selective inhibitory action against chronic myelocytic leukemia cells, ALDH (−) fraction, CellTiter-Glo; assay type: cell-based, Human; settings: Homo sapiens, 10 μg/ml, 24 hours, relative to 0.1% DMSO, read-out: ALDH(−) (growth rate)
Procedure: as §2, §3, §4, §5, §6

[6] = read-out: Evaluation (cancer cell growth rate)
[7] = relative to 0.1% DMSO (100), read-out: Cancer cell growth rate (%)
[8] = read-out: Growth suppression evaluated
[9] = relative to 0.1% DMSO, read-out: ALDH(+) (growth rate)

Row | Excitation wavelength λex [3] | Fluorescence wavelength λem [3] | SMILES | activity at 10 µg/mL [1, 6] | activity at 10 µg/mL [1, 7] | activity at 10 µg/mL [2, 6] | activity at 10 µg/mL [2, 7] | activity at 10 µg/mL [4, 8] | activity at 10 µg/mL [4, 9] | activity at 10 µg/mL [5]
1 |  |  | CCN1C(=O)/C(=c2\s/c(=C/c3ccc4c(c3)c3ccccc3n4CC)c(=O)n2CC(=O)O)SC1=S [compound 1, reference compound] | ≥ 50% | 99% | ≥ 50% | 104% |  |  | 
2 | 586 nm | 623 nm | CCN1c2ccc(/C=C/C3=[N+](CC)c4ccc(OC)cc4C34CCCCC4)cc2C2CCCC21 (centres unmarked) [Compound 8] | 20 to 50% | 24.3% |  |  | < 50% | 23% | 32%
3 | 493 nm | 585 nm | CCn1c2ccccc2c2cc(/C=c3/s/c(=C\C4=[N+](CC)c5ccccc5C4(C)C)n(CC(=O)O)c3=O)ccc21 [Compound 20] | 20 to 50% | 22.3% | < 20% | 4.8% | < 50% | 14% | 25%
4 | 568 nm | 643 nm | CC[N+]1=C(/C=c2\s/c(=C/c3ccc4c(c3)C3CCCC3N4c3ccccc3)c(=O)n2CC(=O)O)C(C)(C)c2ccccc21 (centres unmarked) [Compound 15] | < 20% | 9% | < 20% | 7.1% | < 50% | 21% | 26%
5 |  |  | COc1ccc(N2c3ccc(/C=C4/SC(=S)N(CCC(=O)O)C4=O)cc3C3CCCC32)cc1 (centres unmarked) [compound 3, reference compound] | ≥ 50% | 95% | ≥ 50% | 86.5% |  |  | 
6 |  |  | CCOC(=O)Cn1c(=O)/c(=C\c2ccc3c(c2)C2CCCC2N3c2ccccc2)s/c1=C1/SC(=S)N(CC)C1=O (centres unmarked) [compound 2, reference compound] | ≥ 50% | 91% | ≥ 50% | 88.8% |  |  | 
7 | 609 nm | 692 nm | CCC[N+]1=C(/C=C/C=C/c2ccc(N(C)C)cc2)C(C)(C)c2ccccc21 [Compound 26] | < 20% | 8.9% | < 20% | 5.8% |  |  | 
8 |  |  | CCn1c2ccccc2c2cc(/C=C3/SC(=S)N(CC(=O)O)C3=O)ccc21 [compound 4, reference compound] | ≥ 50% | 100% | ≥ 50% | 99.9% |  |  | 
